# Source: patent US20260085066A1, “LEUCINE RICH REPEAT KINASE 2 (LRRK2) DEGRADING COMPOUNDS AND ASSOCIATED METHODS OF USE” (Arvinas Operations, Inc., priority 2022, published 2026)
# Target: T1, WT LRRK2 (Homo sapiens, UniProt Q5S007)
# T1 construct: endogenous in cells; host or cells: HEK293 cells with HiBit knocked into the endogenous LRRK2 gene, stably expressing firefly luciferase
# Experiment: LRRK2 degradation HiBit assay in HEK293 cells (Nano-Glo Dual-Luciferase)
# Format: cell-based
# Details: HiBit-tagged LRRK2 in HEK293 cells, 24 hours compound treatment
# T1 sequence (Q5S007 whole entry): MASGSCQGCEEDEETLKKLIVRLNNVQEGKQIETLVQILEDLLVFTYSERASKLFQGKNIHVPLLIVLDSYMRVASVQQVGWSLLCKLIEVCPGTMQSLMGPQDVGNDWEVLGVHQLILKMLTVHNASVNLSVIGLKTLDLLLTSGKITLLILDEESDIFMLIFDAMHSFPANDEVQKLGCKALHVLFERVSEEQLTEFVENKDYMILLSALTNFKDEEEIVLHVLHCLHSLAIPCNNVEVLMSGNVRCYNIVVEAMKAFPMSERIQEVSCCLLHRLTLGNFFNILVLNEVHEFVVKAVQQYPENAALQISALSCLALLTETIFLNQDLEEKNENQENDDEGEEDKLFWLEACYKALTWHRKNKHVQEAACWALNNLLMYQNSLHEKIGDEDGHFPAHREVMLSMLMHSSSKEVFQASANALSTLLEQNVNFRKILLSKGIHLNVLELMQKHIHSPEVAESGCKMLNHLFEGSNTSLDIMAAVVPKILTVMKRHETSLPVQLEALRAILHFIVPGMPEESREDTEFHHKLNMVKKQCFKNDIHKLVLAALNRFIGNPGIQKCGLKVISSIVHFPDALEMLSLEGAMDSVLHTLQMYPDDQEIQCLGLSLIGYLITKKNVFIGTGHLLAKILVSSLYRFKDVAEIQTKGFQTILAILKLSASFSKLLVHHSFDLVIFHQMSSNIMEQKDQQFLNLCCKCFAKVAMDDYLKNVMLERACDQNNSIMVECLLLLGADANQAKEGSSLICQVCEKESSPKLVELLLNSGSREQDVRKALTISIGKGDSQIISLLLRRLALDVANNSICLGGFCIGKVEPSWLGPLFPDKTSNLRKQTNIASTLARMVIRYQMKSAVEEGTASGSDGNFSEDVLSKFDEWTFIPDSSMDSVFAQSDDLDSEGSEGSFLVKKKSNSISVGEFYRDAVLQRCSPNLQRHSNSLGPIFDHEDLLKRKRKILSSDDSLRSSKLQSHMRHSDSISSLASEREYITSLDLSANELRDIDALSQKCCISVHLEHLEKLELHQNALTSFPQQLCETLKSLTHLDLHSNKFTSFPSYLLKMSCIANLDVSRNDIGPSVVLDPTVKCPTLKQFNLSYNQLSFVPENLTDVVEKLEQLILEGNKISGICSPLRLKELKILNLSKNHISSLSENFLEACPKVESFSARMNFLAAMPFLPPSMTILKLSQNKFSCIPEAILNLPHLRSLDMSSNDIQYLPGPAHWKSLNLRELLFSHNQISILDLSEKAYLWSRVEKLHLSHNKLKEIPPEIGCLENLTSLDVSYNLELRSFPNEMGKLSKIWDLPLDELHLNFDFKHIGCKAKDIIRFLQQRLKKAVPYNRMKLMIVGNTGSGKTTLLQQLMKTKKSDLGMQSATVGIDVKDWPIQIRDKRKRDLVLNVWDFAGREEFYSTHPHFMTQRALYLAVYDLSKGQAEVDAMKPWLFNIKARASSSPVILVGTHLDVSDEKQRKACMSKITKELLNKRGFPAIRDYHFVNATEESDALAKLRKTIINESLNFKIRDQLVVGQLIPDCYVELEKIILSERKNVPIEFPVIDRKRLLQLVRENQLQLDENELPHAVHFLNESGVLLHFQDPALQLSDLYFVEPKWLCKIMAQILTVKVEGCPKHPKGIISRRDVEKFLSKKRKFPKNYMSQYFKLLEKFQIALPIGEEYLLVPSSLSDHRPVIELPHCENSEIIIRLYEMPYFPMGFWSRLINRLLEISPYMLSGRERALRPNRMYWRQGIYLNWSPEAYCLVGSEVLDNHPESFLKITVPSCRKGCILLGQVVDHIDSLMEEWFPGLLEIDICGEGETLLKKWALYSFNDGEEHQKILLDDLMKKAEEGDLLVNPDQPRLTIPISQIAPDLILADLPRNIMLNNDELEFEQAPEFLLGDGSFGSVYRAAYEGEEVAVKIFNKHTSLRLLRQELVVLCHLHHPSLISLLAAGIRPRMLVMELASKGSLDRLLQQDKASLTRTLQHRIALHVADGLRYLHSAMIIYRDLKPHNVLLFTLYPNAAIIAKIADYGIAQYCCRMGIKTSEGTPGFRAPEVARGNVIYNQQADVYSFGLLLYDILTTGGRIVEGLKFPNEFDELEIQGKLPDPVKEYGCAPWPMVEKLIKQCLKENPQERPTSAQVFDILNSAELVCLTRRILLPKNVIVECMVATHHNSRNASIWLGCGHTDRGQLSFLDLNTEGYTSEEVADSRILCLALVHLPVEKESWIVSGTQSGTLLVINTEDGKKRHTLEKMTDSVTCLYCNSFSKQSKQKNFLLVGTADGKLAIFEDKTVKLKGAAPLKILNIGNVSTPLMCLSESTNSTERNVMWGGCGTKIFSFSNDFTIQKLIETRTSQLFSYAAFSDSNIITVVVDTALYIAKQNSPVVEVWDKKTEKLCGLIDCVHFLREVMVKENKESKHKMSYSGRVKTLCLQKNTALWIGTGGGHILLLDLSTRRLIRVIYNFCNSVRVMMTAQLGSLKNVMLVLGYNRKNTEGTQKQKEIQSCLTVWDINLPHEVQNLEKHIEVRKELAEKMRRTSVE
row,SMILES,Dmax
1,CC1(Oc2ccc3[nH]nc(-c4cc(N5CCC(C[C@H]6CC[C@H](OC7CCN(c8ccc9c(c8F)CN(C8CCC(=O)NC8=O)C9=O)CC7)CC6)CC5)ncn4)c3c2)CC1 (some centres unmarked) [Example 23],50 to 70%
2,COc1c(N2CCC(O[C@H]3CC[C@H](CN4CCN(c5cc(-c6[nH]nc7ccc(CC8(C)CC8)cc67)ncn5)CC4)CC3)CC2)ccc2c1CN(C1CCC(=O)NC1=O)C2=O (some centres unmarked) [Example 28],50 to 70%
3,"Cc1cc(N2CCC(O[C@H]3CC[C@H](CN4CCN(c5cc(-c6n[nH]c7ccc(OC8(C)CC8)cc67)ncn5)CC4)CC3)CC2)c(F)c2c1C(=O)N(C1CCC(=O)NC1=O)C2 (some centres unmarked) [Example 18, 3-(4-fluoro-7-methyl-5-(4-(((1r,4r)-4-((4-(6-(5-(1-methylcyclopropoxy)-1H-indazol-3-yl)pyrimidin-4-yl)piperazin-1-yl)methyl)cyclohexyl)oxy)piperidin-1-yl)-1-oxoisoindolin-2-yl)piperidine-2,6-dione]",≥ 70%
4,CC1(Oc2ccc3[nH]nc(-c4cc(N5CCC(O[C@H]6CC[C@@H](CC7CCN(c8ccc9c(c8F)CN(C8CCC(=O)NC8=O)C9=O)CC7)CC6)CC5)ncn4)c3c2)CC1 (some centres unmarked) [Example 27],50 to 70%
5,CC1(Oc2ccc3[nH]nc(-c4cc(N5CCN(C[C@@H]6CN(CCC7CCN(c8ccc9c(c8F)CN(C8CCC(=O)NC8=O)C9=O)CC7)CCO6)CC5)ncn4)c3c2)CC1 (some centres unmarked) [Example 5],50 to 70%
6,CC1(Oc2ccc3[nH]nc(-c4cc(N5CCN(C[C@H]6CC[C@H](CN7CCN(c8ccc9c(c8F)CN(C8CCC(=O)NC8=O)C9=O)CC7)OC6)CC5)ncn4)c3c2)CC1 (some centres unmarked) [Example 10],50 to 70%
7,"CC1(Oc2ccc3[nH]nc(-c4cc(N5CCN(C[C@H]6CC[C@H](OC7CCN(c8ccc9c(c8)CN(C8CCC(=O)NC8=O)C9=O)CC7)CC6)CC5)ncn4)c3c2)CC1 (some centres unmarked) [Example 14, 3-[5-[4-[4-[[4-[6-[5-(1-methylcyclopropoxy)-1H-indazol-3-yl]pyrimidin-4-yl]piperazin-1-yl]methyl]cyclohexoxy]-1-piperidyl]-1-oxo-isoindolin-2-yl]piperidine-2,6-dione]",50 to 70%
8,"COc1c(N2CCC(O[C@H]3C[C@H](N4CCC5(CC4)CN(c4cc(-c6[nH]nc7ccc(OC8(C)CC8)cc67)ncn4)C5)C3)CC2)ccc2c1CN(C1CCC(=O)NC1=O)C2=O (some centres unmarked) [Example 4, 3-[4-methoxy-5-[4-[3-[2-[6-[5-(1-methylcyclopropoxy)-2H-indazol-3-yl]pyrimidin-4-yl]-2,7-diazaspiro[3.5]nonan-7-yl]cyclobutoxy]-1-piperidyl]-1-oxo-isoindolin-2-yl]piperidine-2,6-dione]",50 to 70%
9,CC1(Oc2ccc3[nH]nc(-c4cc(N5CCC(O[C@H]6CC[C@H](CC7CCN(c8ccc9c(c8F)CN(C8CCC(=O)NC8=O)C9=O)CC7)CC6)CC5)ncn4)c3c2)CC1 (some centres unmarked) [Example 29],≥ 70%
10,CC1(Oc2ccc3[nH]nc(-c4cc(N5CCN(CCN6CCN(CC7CCN(c8ccc9c(c8F)CN(C8CCC(=O)NC8=O)C9=O)CC7)CC6)CC5)ncn4)c3c2)CC1 (centres unmarked) [Example 8],50 to 70%
11,CC1(Oc2ccc3[nH]nc(-c4cc(N5CCN(C[C@H]6CN(CCC7CCN(c8ccc9c(c8F)CN(C8CCC(=O)NC8=O)C9=O)CC7)CCO6)CC5)ncn4)c3c2)CC1 (some centres unmarked) [Example 17],50 to 70%
12,"Cc1cc(N2CCC(O[C@H]3CC[C@@H](CN4CCN(c5cc(-c6n[nH]c7ccc(OC8(C)CC8)cc67)ncn5)CC4)CC3)CC2)c(F)c2c1C(=O)N(C1CCC(=O)NC1=O)C2 (some centres unmarked) [Example 20, 3-(4-fluoro-7-methyl-5-(4-(((1s,4s)-4-((4-(6-(5-(1-methylcyclopropoxy)-1H-indazol-3-yl)pyrimidin-4-yl)piperazin-1-yl)methyl)cyclohexyl)oxy)piperidin-1-yl)-1-oxoisoindolin-2-yl)piperidine-2,6-dione]",< 50%
13,"CC1(Oc2ccc3[nH]nc(-c4cc(N5CCC(C[C@H]6CC[C@@H](OC7CCN(c8ccc9c(c8F)CN(C8CCC(=O)NC8=O)C9=O)CC7)CC6)CC5)ncn4)c3c2)CC1 (some centres unmarked) [Example 22, 3-[4-fluoro-5-[4-[4-[[1-[6-[5-(1-methylcyclopropoxy)-1H-indazol-3-yl]pyrimidin-4-yl]-4-piperidyl]methyl]cyclohexoxy]-1-piperidyl]-1-oxo-isoindolin-2-yl]piperidine-2,6-dione]",≥ 70%

# More lines, now with the values ahead:
row,Dmax,SMILES
1,50 to 70%,"CC1(Oc2ccc3[nH]nc(-c4cc(N5CCO[C@H](CN6CCN(CC7CCN(c8ccc9c(c8F)CN(C8CCC(=O)NC8=O)C9=O)CC7)CC6)C5)ncn4)c3c2)CC1 (stereo partly drawn) [Example 1, 3-[4-fluoro-5-[4-[[4-[[(2R)-4-[6-[5-(1-methylcyclopropoxy)-1H-indazol-3-yl]pyrimidin-4-yl]morpholin-2-yl]methyl]piperazin-1-yl]methyl]-1-piperidyl]-1-oxo-isoindolin-2-yl]piperidine-2,6-dione]"
2,50 to 70%,"CC1(Oc2ccc3[nH]nc(-c4cc(N5CCN(CCC6(F)CCN(CC7CCN(c8ccc9c(c8F)CN(C8CCC(=O)NC8=O)C9=O)CC7)CC6)CC5)ncn4)c3c2)CC1 (centres unmarked) [Example 6, 3-[4-fluoro-5-[4-[[4-fluoro-4-[2-[4-[6-[5-(1-methylcyclopropoxy)-1H-indazol-3-yl]pyrimidin-4-yl]piperazin-1-yl]ethyl]-1-piperidyl]methyl]-1-piperidyl]-1-oxo-isoindolin-2-yl]piperidine-2,6-dione]"
3,50 to 70%,CC1(Cc2ccc3[nH]nc(-c4cc(N5CCC(CN6CCN(CC7CCN(c8ccc9c(c8F)CN(C8CCC(=O)NC8=O)C9=O)CC7)CC6)CC5)ncn4)c3c2)CC1 (centres unmarked) [Example 21]
4,50 to 70%,CC1(Oc2ccc3[nH]nc(-c4cc(N5CCN(CC(F)(F)C6CCN(CC7CCN(c8ccc9c(c8F)CN(C8CCC(=O)NC8=O)C9=O)CC7)CC6)CC5)ncn4)c3c2)CC1 (centres unmarked) [Example 15]
5,50 to 70%,"CC1(Oc2ccc3[nH]nc(-c4cc(N5CCN(C[C@H]6CN(CC7CCN(c8ccc9c(c8F)CN(C8CCC(=O)NC8=O)C9=O)CC7)CCO6)CC5)ncn4)c3c2)CC1 (stereo partly drawn) [Example 12, 3-[4-fluoro-5-[4-[[(2S)-2-[[4-[6-[5-(1-methylcyclopropoxy)-1H-indazol-3-yl]pyrimidin-4-yl]piperazin-1-yl]methyl]morpholin-4-yl]methyl]-1-piperidyl]-1-oxo-isoindolin-2-yl]piperidine-2,6-dione]"
6,< 50%,CC1(Cc2ccc3[nH]nc(-c4cc(N5CCC(OC6CCN(CC7CCN(c8ccc9c(c8F)CN(C8CCC(=O)NC8=O)C9=O)CC7)CC6)CC5)ncn4)c3c2)CC1 (centres unmarked) [Example 24]
7,50 to 70%,CC1(Oc2ccc3[nH]nc(-c4cc(N5CCN(C[C@@H]6CN(CC7CCN(c8ccc9c(c8F)CN(C8CCC(=O)NC8=O)C9=O)CC7)CCO6)CC5)ncn4)c3c2)CC1 (some centres unmarked) [Example 13]
8,50 to 70%,CC1(Oc2ccc3[nH]nc(-c4cc(N5CCO[C@@H](CN6CCN(CC7CCN(c8ccc9c(c8F)CN(C8CCC(=O)NC8=O)C9=O)CC7)CC6)C5)ncn4)c3c2)CC1 (some centres unmarked) [Example 2]
9,50 to 70%,CC1(Oc2ccc3[nH]nc(-c4cc(N5CCC(O[C@@H]6CCN(CC7CCN(c8ccc9c(c8F)CN(C8CCC(=O)NC8=O)C9=O)CC7)C(C)(C)C6)CC5)ncn4)c3c2)CC1 (some centres unmarked) [Example 11]
10,< 50%,CC1(Cc2ccc3[nH]nc(-c4cc(N5CCC(CN6CCN(CC7CCN(c8ccc9c(c8F)CN(C8CCC(=O)NC8=O)C9=O)CC7)CC6(C)C)CC5)ncn4)c3c2)CC1 (centres unmarked) [Example 25]
11,50 to 70%,CC1(Oc2ccc3[nH]nc(-c4cc(N5CCO[C@H](CN6CCN(CC7CCN(c8ccc9c(c8F)CN(C8CCC(=O)NC8=O)C9=O)CC7)CC6(C)C)C5)ncn4)c3c2)CC1 (some centres unmarked) [Example 3]
12,50 to 70%,CC1(Oc2ccc3[nH]nc(-c4cc(N5CCN(C[C@@H]6CCN(CC7CCN(c8ccc9c(c8F)CN(C8CCC(=O)NC8=O)C9=O)CC7)C[C@@H]6F)CC5)ncn4)c3c2)CC1 (some centres unmarked) [Example 9]
13,50 to 70%,CC1(Oc2ccc3[nH]nc(-c4cc(N5CCC(CN6CC[C@@H](CN7CCN(c8ccc9c(c8F)CN(C8CCC(=O)NC8=O)C9=O)CC7)[C@@H](F)C6)CC5)ncn4)c3c2)CC1 (some centres unmarked) [Example 7]
14,50 to 70%,Cc1cc(N2CCC(CN3CCN(CC4CCN(c5cc(-c6n[nH]c7ccc(OC8(C)CC8)cc67)ncn5)CC4)C(C)(C)C3)CC2)c(F)c2c1C(=O)N(C1CCC(=O)NC1=O)C2 (centres unmarked) [Example 19]
15,50 to 70%,CC1(Oc2ccc3[nH]nc(-c4cc(N5CCO[C@@H](CN6CCN(CC7CCN(c8ccc9c(c8F)CN(C8CCC(=O)NC8=O)C9=O)CC7)CC6(C)C)C5)cnn4)c3c2)CC1 (some centres unmarked) [Example 16]
16,50 to 70%,CC1(Cc2ccc3[nH]nc(-c4cc(N5CCC(CN6CCN(CC7CCN(c8ccc9c(c8F)CN(C8CCC(=O)NC8=O)C9=O)CC7)C(C)(C)C6)CC5)ncn4)c3c2)CC1 (centres unmarked) [Example 26]
